Test results published in ChEMBL document CHEMBL1131081, “Beta-amino-thiols inhibit the zinc metallopeptidase activity of tetanus toxin light chain” (J Med Chem, 1998).

Experiment: Binding affinity against S1 subsite of the Tetanus neurotoxin (TeNt)
Set-up: species or system Clostridium tetani

Q: For `NC(=O)c1cccc(C(N)CS)c1` (stereo unspecified), which Ki is on record?
A: The Ki was 125 µM.

Q: For `NC(CS)c1cccc(S(N)(=O)=O)c1` (stereo unspecified), which Ki is on record?
A: The Ki was 35 µM.

Q: With `NC(CS)CCS(N)(=O)=O` (stereo unspecified) as the compound, how does the Ki read?
A: The Ki was 100 µM.

Q: For `CN(C)C(=O)c1cccc(C(N)CS)c1` (stereo unspecified), which Ki is on record?
A: The Ki was 250 µM.

Q: Which Ki does the source give for `NC(CS)c1cccc(S(=O)(=O)O)c1` (stereo unspecified) here?
A: The Ki was 40 µM.

Q: For `NCC(CS)CCS(=O)(=O)O` (stereo unspecified), which Ki is on record?
A: Its Ki is 500 µM.
